Data reported in patent US20240245770A1, “COMPOSITIONS AND METHODS FOR TREATING NEUROMUSCULAR DISORDERS” (The Regents of the University of California, priority 2019, published 2024).

Experiments:
[1] = tested on: Oral squamous carcinoma cells (OSCCs) and Oral squamous stem cell carcinoma (OSCSCs); assay: NAC blocking of CDDP mediated cell death (PI staining, flow cytometry); format: cell-based, human; conditions: OSCC compared with OSCSCs, 24 hours
Protocol: Testing and selection of the best NAC to be used in ALS treatment. […] Afterwards OSCCs and OSCSCs were detached, and the viability of cells was determined after PI staining followed by flow cytometric analysis. In this figure Forward and Side Scatters (Fs/ss) were assessed since decrease in the Fs/ss is seen in cells undergoing cell death.
Testing and selection of the best NAC to be used in ALS treatment. […] Afterwards OSCCs and OSCSCs were detached, and the viability of cells was determined after PI staining followed by flow cytometric analysis. In this figure the percentage of PI stained cells were assessed.

OSCSCs = assay: NAC blocking of H2O2 mediated cell death in OSCSCs; format: cell-based, human; conditions: NAC 20 mM, 24 hours, FIG. 68
[2] = tested on: Dental Pulp Stromal Cells (DPSCs); assay: NAC blocking of H2O2 mediated cell death in DPSCs; format: cell-based, human; conditions: NAC 20 mM, 24 hours, FIG. 67
Protocol: Testing and selection of the best NAC to be used in ALS treatment. […] Afterwards DPSCs were detached, and the viability of cells was determined after PI staining followed by flow cytometric analysis. In this figure the decrease in FS/ss and the percentage of PI stained cells were assessed.

ALS = conditions: cited from earlier work

[NH2][Pt]([NH2])([Cl])[Cl] [CDDP, Cisplatin]
cell death induced by CDDP [1]: induces more of the cell death in OSCC than in OSCSCs

CC(=O)N[C@@H](CS)C(=O)O [NAC-M]
H2O2 mediated cell death (Fs/ss and PI positive cells) (OSCSCs): able to inhibit H2O2 mediated cell death effectively | H2O2 mediated cell death (Fs/ss and PI positive cells) [2]: able to inhibit H2O2 mediated cell death effectively

Nc1nc2ccc(OC(F)(F)F)cc2s1 [Riluzole]
extension of life (ALS): about two to three
